Target: T1, human full-length recombinant PKC βII (Homo sapiens, UniProt P05771)
T1 construct: Active human full-length recombinant PKC βII; purchased Invitrogen GmbH, Darmstadt, Germany
Experiment: Determination of PKC βII inhibition (Caliper mobility-shift kinase assay, phosphorylation of fluorescein peptide substrate)
Type: biochemical
Conditions: final compound concentration 1.14 µM (±0.15 µM); 60 min incubation at 32 °C
Procedure: Determination of PKC βII inhibition
PKC βII inhibition was determined according to the following protocol:
Active human full-length recombinant PKC βII and the peptide substrate, Fluorescein-RFARKGSLRQKNV, were purchased from Invitrogen GmbH, Darmstadt, Germany. Adenosine-5'-triphosphate (ATP), bovine serum albumine (BSA), dimethylsulphoxide (DMSO), 4-(2-hydroxyethyl)piperazine-1-ethanesulfonic acid (Hepes), Triton X-100, 1,2-Dioleoyl-sn-glycerol (DAG), L-α-Phosphatidyl-L-serine (PS), calcium chloride (CaCl2), and Pluronic F-68 were purchased from Sigma-Aldrich, Munich, Germany. Magnesium chloride, 1 M sodium hydroxide solution, 1M hydrochloric acid solution and EDTA were obtained from Merck Biosciences, Darmstadt, Germany.
Test compounds were diluted to three times the test concentration in buffer 1 (30 mM Hepes-NaOH, pH 7.4, 0.01 % Pluronic F-68 and 3 % (v/v) DMSO). The PKC βII enzyme was diluted to a concentration of 30 ng/ml in buffer 2 (30 mM Hepes-NaOH, pH 7.4, 15 mM MgCl2,150 µM CaCl2, 150 µg/ml PS, 60 µg/ml DAG, and 0.045 % (w/v) Triton X-100). The peptide substrate and ATP were diluted to concentrations of 3 µM and 120 µM, respectively, in buffer 2. Two µl of the compound solution were mixed with 2 µl of the diluted enzyme in a 384-well small volume microtiter plate (Greiner, Bio-One, Frickenhausen, Germany), and the kinase reaction was initiated by addition of 2 µl of the solution containing peptide substrate and ATP. After 60 min incubation at 32 °C, the reaction was stopped by addition of 20 µl of a solution containing 130 mM Hepes-NaOH, pH 7.4, 0.0195 % (v/v) Brij-35, 6.5 mM EDTA, 0.13 % chip coating reagent 3 (Caliper Lifescience Inc, Hopkinton, MA) and 6.5 % (v/v) DMSO. Phosphorylation of the substrate peptide was then detected on a Caliper 3000 instrument essentially as described by Pommereau et al (J. Biomol. Screening 2004, 9(5), 409-416). Separation conditions were as follows: Pressure -0.8 psi, upstream voltage - 3000 V, downstream voltage -800 V. Positive controls (buffer 1 instead of compound) and negative controls (buffer 1 instead of compound and buffer 2 instead of kinase solution) were run in parallel on each plate. Fractional turnover (R) was determined as the height of the peak of the phosphorylated peptide product divided by the sum of the unphosphorylated substrate and phosphorylated product peak heights. Percent-inhibition values for the test compounds were determined using the formula % Inhibition = 100*(1-(Rcompound-Rnegative control)/(Rpositive control-Rnegative control). [formula]
In the following table % inhibition values observed with example compounds at a final concentration of 1.14 µM (±0.15 µM) are listed: […]

T1 sequence (P05771 1-673 isoform P05771-2): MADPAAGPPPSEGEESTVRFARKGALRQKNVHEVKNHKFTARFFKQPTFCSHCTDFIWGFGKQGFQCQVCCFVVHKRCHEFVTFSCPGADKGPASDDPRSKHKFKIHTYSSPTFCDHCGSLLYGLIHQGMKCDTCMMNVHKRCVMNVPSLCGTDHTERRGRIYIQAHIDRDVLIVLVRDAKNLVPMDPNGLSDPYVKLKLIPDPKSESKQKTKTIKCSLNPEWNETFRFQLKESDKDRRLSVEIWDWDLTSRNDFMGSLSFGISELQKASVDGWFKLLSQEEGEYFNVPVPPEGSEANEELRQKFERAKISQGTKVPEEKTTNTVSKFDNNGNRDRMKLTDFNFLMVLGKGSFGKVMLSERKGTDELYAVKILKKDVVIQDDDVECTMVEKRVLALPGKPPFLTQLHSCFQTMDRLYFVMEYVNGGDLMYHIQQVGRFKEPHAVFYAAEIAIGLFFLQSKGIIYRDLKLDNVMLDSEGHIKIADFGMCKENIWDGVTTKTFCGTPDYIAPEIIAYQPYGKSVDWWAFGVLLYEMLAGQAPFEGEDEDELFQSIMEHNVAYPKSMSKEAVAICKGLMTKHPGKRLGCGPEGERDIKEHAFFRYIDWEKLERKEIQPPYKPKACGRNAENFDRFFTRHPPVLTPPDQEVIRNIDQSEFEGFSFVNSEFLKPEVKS

Compound	inhibition at 1.14 µM [%]
CN(C)c1cccc(/C=C/c2n[nH]c3nc(-c4ccc(O)cc4)cc(C(=O)N4CCNCC4)c23)c1 [Example 23, [3-[(E)-2-(3-Dimethylamino-phenyl)-vinyl]-6-(4-hydroxy-phenyl)-1H-pyra-zolo[3,4-b]pyri-din-4-yl]-pipe-razin-1-yl-methanone]	99
Cc1cccc(/C=C/c2n[nH]c3nc(-c4ccc(O)cc4)cc(C(=O)N4CCNCC4)c23)c1 [Example 38, [6-(4-Hydroxy-phenyl)-3-((E)-2-m-tolyl-vinyl)-1H-pyrazolo[3,4-b]pyridin-4-yl]-piperazin-1-yl-methanone]	98
O=C(c1cc(-c2ccc(O)cc2)nc2[nH]nc(/C=C/c3cccc(N4CCCC4)c3)c12)N1CCNCC1 [Example 28, {6-(4-Hydroxy-phenyl)-3-[(E)-2-(3-pyrrolidin-1-yl-phenyl)-vinyl]-1H-pyrazolo[3,4-b]pyridin-4-yl}-piperazin-1-yl-methanone]	94
CC1(C)CNCCN1C(=O)c1cc(-c2ccc(O)cc2)nc2[nH]nc(/C=C/c3ccccc3)c12 [Example 3, (2,2-Dimethyl-piperazin-1-yl)-[6-(4-hydroxy-phenyl)-3-((E)-styryl)-1 H-pyrazolo[3,4-b]pyridin-4-yl]-methanone]	88
O=C(c1cc(-c2ccc(O)cc2Cl)nc2[nH]nc(/C=C/c3ccccc3)c12)N1CCNCC1 [Example 13, [6-(2-Chloro-4-hydroxy-phenyl)-3-((E)-styryl)-1 H-pyrazolo[3,4-b]pyridin-4-yl]-piperazin-1-yl-methanone]	110
O=C(c1cc(-c2ccc(O)cc2)nc2[nH]nc(/C=C/c3cc(Cl)cc(N4CCCCC4)c3)c12)N1CCNCC1 [Example 30, [3-[(E)-2-(3-Chloro-5-pipe-ridin-1-yl-phe-nyl)-vinyl]-6-(4-hydroxy-phenyl)-1H-pyrazolo[3,4-b]pyridin-4-yl]-piperazin-1-yl-methanone]	90
CN1Cc2cc(/C=C/c3n[nH]c4nc(-c5ccc(O)cc5)cc(C(=O)N5CCNCC5)c34)ccc2C1=O [Example 32, 5-{(E)-2-[6-(4-Hydroxy-phenyl)-4-(piperazine-1-carbonyl)-1H-py-razolo[3,4-b]pyri-din-3-yl]-vinyl}-2-methyl-2,3-di-hydro-isoindol-1-one]	99
O=C(c1cc(-c2ccc(O)cc2)nc2[nH]nc(/C=C/c3cccc(N4CCCC4=O)c3)c12)N1CCNCC1 [Example 20, 1-(3-{(E)-2-[6-(4-Hydroxy-phenyl)-4-(piperazine-1-carbonyl)-1H-pyrazolo[3,4-b]pyridin-3-yl]-vinyl}-phenyl)-pyrrolidin-2-one]	115
Cc1ccc(/C=C/c2n[nH]c3nc(-c4ccc(O)cc4)cc(C(=O)N4CCNCC4)c23)c(C)c1 [Example 49, [3-[(E)-2-(2,4-Dimethylphenyl)-vinyl]-6-(4-hydroxy-phenyl)-1H-pyrazolo[3,4-b]pyridin-4-yl]-piperazin-1-yl-methanone]	88
O=C(c1cc(-c2ccc(O)cc2)nc2[nH]nc(/C=C/c3ccc(OC(F)F)cc3)c12)N1CCNCC1 [Example 41, [3-[(E)-2-(4-Difluoromethoxy-phenyl)-vinyl]-6-(4-hydroxy-phenyl)-1H-pyrazolo[3,4-b]pyridin-4-yl]-piperazin-1-yl-methanone]	97
CN(C)Cc1cccc(/C=C/c2n[nH]c3nc(-c4ccc(O)cc4)cc(C(=O)N4CCNCC4)c23)c1 [Example 14, [3-[(E)-2-(3-Dimethylaminomethyl-phenyl)-vinyl]-6-(4-hydroxy-phenyl)-1H-pyrazolo[3,4-b]pyridin-4-yl]-piperazin-1-yl-methanone]	100
Cc1cc(/C=C/c2n[nH]c3nc(-c4ccc(O)cc4)cc(C(=O)N4CCNCC4)c23)ccc1C#N [Example 29, 4-{(E)-2-[6-(4-Hydroxy-phenyl)-4-(piperazine-1-carbonyl)-1H-pyrazolo[3,4-b]pyridin-3-yl]-vinyl}-2-methyl-benzonitrile]	96
CS(=O)(=O)c1cccc(/C=C/c2n[nH]c3nc(-c4ccc(O)cc4)cc(C(=O)N4CCNCC4)c23)c1 [Example 22, {6-(4-hydroxy-phenyl)-3-[(E)-2-(3-methanesulfonyl-phenyl)-vinyl]-1H-pyrazolo[3,4-b]-pyridin-4-yl}-piperazin-1-yl-methanone]	100

Second part, the compound after the results:

inhibition at 1.14 µM [%]	Compound
76	Cc1ccc(/C=C/c2n[nH]c3nc(-c4ccc(O)cc4)cc(C(=O)N4CCNCC4)c23)cc1F [Example 55, [3-[(E)-2-(3-Fluoro-4-methyl-phenyl)-vinyl]-6-(4-hydroxy-phenyl)-1H-pyrazolo[3,4-b]pyridin-4-yl]-piperazin-1-yl-methanone]
98	O=C(c1cc(-c2ccc(O)cc2)nc2[nH]nc(/C=C/c3cc(Cl)cc(Cl)c3)c12)N1CCNCC1 [Example 70, [3-[(E)-2-(3,5-Dichloro-phenyl)-vinyl]-6-(4-hydroxy-phenyl)-1H-pyrazolo[3,4-b]pyridin-4-yl]-piperazin-1-yl-methanone]
54	CN(C)C(=O)CN1CCN(C(=O)c2cc(-c3ccc(O)cc3)nc3[nH]nc(/C=C/c4ccccc4)c23)CC1 [Example 84, 2-{4-[6-(4-Hydroxy-phenyl)-3-((E)-styryl)-1H-pyrazolo[3,4-b]-pyridine-4-carbo-nyl]-piperazin-1-yl}-N,N-dimethyl-acetamide]
79	CCCC[C@@H]1CNCCN1C(=O)c1cc(-c2ccc(O)cc2)nc2[nH]nc(/C=C/c3ccccc3)c12 [Example 77, ((R)-2-Butyl-piperazin-1-yl)-[6-(4-hydroxy-phenyl)-3-((E)-styryl)-1H-pyra-zolo[3,4-b]-pyridin-4-yl]-methanone]
100	COc1cccc(/C=C/c2n[nH]c3nc(-c4ccc(O)cc4)cc(C(=O)N4CCNCC4)c23)c1 [Example 56, {6-(4-Hydroxy-phenyl)-3-[(E)-2-(3-methoxyphenyl)-vinyl]-1H-pyrazolo[3,4-b]pyridin-4-yl}-piperazin-1-yl-methanone]
26	CCC(CC)C(=O)N1CCN(C(=O)c2cc(-c3ccc(O)cc3)nc3[nH]nc(/C=C/c4ccccc4)c23)CC1 [Example 80, 2-Ethyl-1-{4-[6-(4-hydroxy-phenyl)-3-((E)-styryl)-1H-pyra-zolo[3,4-b]pyri-dine-4-carbonyl]-piperazin-1-yl}-butan-1-one]
57	CCCC[C@H]1CNCCN1C(=O)c1cc(-c2ccc(O)cc2)nc2[nH]nc(/C=C/c3ccccc3)c12 [Example 76, ((S)-2-Butyl-piperazin-1-yl)-[6-(4-hydroxy-phenyl)-3-((E)-styryl)-1H-pyra-zolo[3,4-b]-pyridin-4-yl]-methanone]
94	Cc1ccccc1/C=C/c1n[nH]c2nc(-c3ccc(O)cc3)cc(C(=O)N3CCNCC3)c12 [Example 69, [6-(4-Hydroxy-phenyl)-3-((E)-2-o-tolyl-vinyl)-1H-pyrazolo[3,4-b]pyridin-4-yl]-piperazin-1-yl-methanone]
86	Cc1cc(F)ccc1/C=C/c1n[nH]c2nc(-c3ccc(O)cc3)cc(C(=O)N3CCNCC3)c12 [Example 61, [3-[(E)-2-(4-Fluoro-2-methyl-phenyl)-vinyl]-6-(4-hydroxy-phenyl)-1H-pyrazolo[3,4-b]pyridin-4-yl]-piperazin-1-yl-methanone]

Reference: patent publication EP2567959B1, “6-(4-HYDROXY-PHENYL)-3-STYRYL-1H-PYRAZOLO[3,4-B]PYRIDINE-4-CARBOXYLIC ACID AMIDE DERIVATIVES AS KINASE INHIBITORS” (SANOFI, priority 2011, dated 2013)
